Target: Excitatory amino acid transporter 1 (Homo sapiens, UniProt P43003)
Experiment: Substrate uptake by the Excitatory Amino Acid Transporter 1 (EAAT1, SLC1A3) as assessed by the fluorescent FLIPR membrane potential dye in HEK-293 JumpIN-SLC1A3 cells (PubChem AID: 1745864)
Format: functional, cell-based, HEK293

Excitatory amino acid transporter 1, sequence (P43003 whole entry): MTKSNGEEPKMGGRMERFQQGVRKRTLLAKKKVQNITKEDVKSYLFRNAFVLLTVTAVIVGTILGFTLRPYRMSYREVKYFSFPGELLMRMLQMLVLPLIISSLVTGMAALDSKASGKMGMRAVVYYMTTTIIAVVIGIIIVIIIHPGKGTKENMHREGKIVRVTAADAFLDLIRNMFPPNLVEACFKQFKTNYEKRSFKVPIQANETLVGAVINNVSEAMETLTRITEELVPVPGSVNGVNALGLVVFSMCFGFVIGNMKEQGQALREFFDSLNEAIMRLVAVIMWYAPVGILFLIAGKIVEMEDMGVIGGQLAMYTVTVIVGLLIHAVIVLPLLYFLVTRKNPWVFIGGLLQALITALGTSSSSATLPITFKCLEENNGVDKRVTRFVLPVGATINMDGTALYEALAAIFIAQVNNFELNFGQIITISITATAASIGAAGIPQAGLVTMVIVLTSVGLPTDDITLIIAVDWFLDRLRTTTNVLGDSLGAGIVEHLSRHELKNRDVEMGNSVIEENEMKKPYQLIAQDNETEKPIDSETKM

| EC50 [µM] | SMILES |
| --- | --- |
| 376 | N[C@@H](CS)C(=O)O [CYSTEINE] |
| 16 | N[C@@H](CCC(=O)O)C(=O)O [GLUTAMIC ACID] |

Source: ChEMBL document CHEMBL5209589, “Membrane potential based transport assay for SLC1A3 using HEK293 JumpIn SLC1A3 OE cells” (2022)
